Data on 13 compounds can be found in PubChem BioAssay (NCI).

Some test systems named below: SK-MEL-5 melanoma; SF-539 CNS; SK-MEL-28 melanoma; OVCAR-4 ovarian; HL-60(TB) leukemia; OVCAR-3 ovarian; NCI-H460 lung; COLO 205 colon; KM12 colon.
Common to all, as to experiment: DTP human tumour cell line panel, 48 h

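Method: 48-hour compound exposure of cells in 96-well plates, five concentrations, linear interpolation of endpoints. GI50 marks 50% less growth. Definition used: TGI = concentration required for complete inhibition of growth.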 Some results are limits rather than exact numbers.

As to `Nc1ccc(-n2c(=O)oc3ccc(Cl)cc3c2=O)c(Cl)c1`, the 50% growth inhibitory concentration (GI50) (in general, the concentration that inhibits growth by half) in the assay on SK-MEL-5 melanoma was 0.048 µM; in the assay on SF-539 CNS it was 0.116 µM; in the assay on SK-MEL-28 melanoma it was 0.1 µM; with OVCAR-4 ovarian, 0.111 µM; with HL-60(TB) leukemia, 0.0499 µM; in the assay with OVCAR-3 ovarian, 0.107 µM. In addition, the figures for the GI50 with NCI-H460 lung, in the assay on COLO 205 colon and in the assay with KM12 colon were 0.109 µM, 2.97 µM and 0.255 µM, respectively. Further, the TGI – broadly, the concentration at which net growth stops – with SK-MEL-5 melanoma was 0.136 µM; with SF-539 CNS, 1.01 µM; in the assay on SK-MEL-28 melanoma, 0.73 µM; in the assay on OVCAR-4 ovarian, > 94.8 µM; with HL-60(TB) leukemia it was 0.267 µM; in the assay on OVCAR-3 ovarian, 7.21 µM. Further, the TGI was determined as 3.74 µM with NCI-H460 lung, 8.26 µM with COLO 205 colon and 0.908 µM in the assay with KM12 colon.
Take `CCOC(=O)C(C)c1nc2cc(N3CCN(C)CC3)c(F)cc2[nH]c1=O` (stereo not given): the TGI in the assay on SK-MEL-5 melanoma, in the assay on SF-539 CNS, in the assay with SK-MEL-28 melanoma, with OVCAR-4 ovarian, with HL-60(TB) leukemia and in the assay with OVCAR-3 ovarian was > 100 µM each time. The TGI in the assay on NCI-H460 lung, in the assay on COLO 205 colon and with KM12 colon was > 100 µM throughout.
For the compound `Nc1c(S(=O)(=O)O)cc(Nc2cccc(S(=O)(=O)/C=C/S(=O)(=O)O)c2)c2c1C(=O)c1ccccc1C2=O`, the TGI with SK-MEL-5 melanoma, in the assay on SF-539 CNS, with SK-MEL-28 melanoma, in the assay on OVCAR-4 ovarian, in the assay on HL-60(TB) leukemia and in the assay on OVCAR-3 ovarian was > 100 µM throughout. Besides, the TGI with NCI-H460 lung, in the assay with COLO 205 colon and with KM12 colon was > 100 µM each time.
`CCOc1cc(C2SCC(=O)N2c2nc3cc4sc(N5C(=O)CSC5c5ccc(O)c(OCC)c5)nc4cc3s2)ccc1O` (stereo not given): the TGI in the assay on SK-MEL-5 melanoma, in the assay on SF-539 CNS, in the assay with SK-MEL-28 melanoma, with OVCAR-4 ovarian, with HL-60(TB) leukemia and with OVCAR-3 ovarian was > 100 µM each time. Moreover, the total growth inhibition concentration (TGI) was > 27.5 µM in the assay on NCI-H460 lung, > 100 µM in the assay on COLO 205 colon and > 100 µM with KM12 colon.
As to `O=C1C(N=Nc2ccc(-c3nc4ccccc4[nH]3)cc2)NC(=S)N1c1ccccc1` (stereo not given), the TGI with SK-MEL-5 melanoma, with SF-539 CNS, in the assay with SK-MEL-28 melanoma, with OVCAR-4 ovarian, with HL-60(TB) leukemia and in the assay with OVCAR-3 ovarian was > 100 µM each time. The TGI was > 100 µM in the assay with NCI-H460 lung, > 100 µM in the assay with COLO 205 colon and 37.5 µM in the assay on KM12 colon.
`CC(C)(C)c1cc(C2COC(=O)COCC(=O)OCCOCCOCCO2)cc(C(C)(C)C)c1O` (stereo not given): the TGI was > 100 µM in the assay on SK-MEL-5 melanoma; > 79.7 µM in the assay on SF-539 CNS; 38.9 µM with SK-MEL-28 melanoma; > 100 µM with OVCAR-4 ovarian; > 31.6 µM with HL-60(TB) leukemia; > 100 µM with OVCAR-3 ovarian. Moreover, the TGI with NCI-H460 lung was 98.5 µM; with COLO 205 colon, > 100 µM; in the assay with KM12 colon, > 100 µM.
As to `CN(c1ccccc1Cl)S(=O)(=O)c1ccccc1[N+](=O)[O-]`, the TGI with SK-MEL-5 melanoma is 28.9 µM; with SF-539 CNS, > 100 µM; with SK-MEL-28 melanoma, > 100 µM; in the assay with OVCAR-4 ovarian it was > 100 µM; in the assay with HL-60(TB) leukemia it was > 100 µM; with OVCAR-3 ovarian it was > 100 µM. The TGI in the assay on NCI-H460 lung, in the assay on COLO 205 colon and in the assay with KM12 colon was > 100 µM each time.
For `Cc1ccc2nc(Cl)c(/C=N/N3C(=O)/C(=C/c4ccc(N(C)C)cc4)N=C3c3ccccc3)cc2c1`, the TGI in the assay on SK-MEL-5 melanoma is > 100 µM; in the assay on SF-539 CNS, 52.4 µM; in the assay with SK-MEL-28 melanoma, > 100 µM; in the assay with OVCAR-4 ovarian it was > 100 µM; in the assay on HL-60(TB) leukemia, > 100 µM; with OVCAR-3 ovarian it was 44.9 µM. Moreover, the TGI with NCI-H460 lung, in the assay on COLO 205 colon and in the assay with KM12 colon was > 100 µM each time.
For `CCOC(=O)N(C)C1(c2ccccc2)CCN(CCCC(=O)c2ccc(F)cc2)CC1`, the TGI with SK-MEL-5 melanoma was 31.3 µM; in the assay with SF-539 CNS, 65.7 µM; with SK-MEL-28 melanoma, 47.1 µM; in the assay with OVCAR-4 ovarian it was > 100 µM; with HL-60(TB) leukemia, 79.1 µM; in the assay with OVCAR-3 ovarian, > 100 µM. The figures for the TGI with NCI-H460 lung, with COLO 205 colon and in the assay on KM12 colon were > 100 µM, 29.7 µM and 81.1 µM, respectively.
Take `COc1ccc2c(c1)CC[C@@H]1[C@@H]2CC[C@]2(C)C(=O)/C(=C/c3cc(OC)c(OC)c(OC)c3)C[C@@H]12`: the TGI in the assay with SK-MEL-5 melanoma is > 100 µM; with SF-539 CNS, 67 µM; in the assay with OVCAR-4 ovarian, > 100 µM; in the assay with HL-60(TB) leukemia, > 100 µM; in the assay with OVCAR-3 ovarian, 33.7 µM; in the assay on NCI-H460 lung, > 100 µM. For the same compound, the TGI in the assay with COLO 205 colon was > 100 µM; in the assay on KM12 colon it was 82.9 µM.
On to `CN(C)CCn1c(=O)c2ccc3c4c(nn3CCN(C)C)c3ccccc3n(c1=O)c24`, for which the TGI worked out at 1.42 µM in the assay with SK-MEL-5 melanoma; 2.2 µM in the assay on SF-539 CNS; 6.46 µM in the assay with SK-MEL-28 melanoma; 1.71 µM in the assay on OVCAR-4 ovarian; 2.75 µM in the assay with HL-60(TB) leukemia; 2.63 µM with OVCAR-3 ovarian. For the same compound, the figures for the TGI in the assay on NCI-H460 lung, in the assay on COLO 205 colon and in the assay on KM12 colon were 0.417 µM, 0.985 µM and 9.91 µM, respectively.
Regarding `CS(=O)(=O)O.[Ag]`, the TGI was 18.3 µM in the assay with SK-MEL-5 melanoma; 32.1 µM in the assay on SF-539 CNS; 35.2 µM in the assay with SK-MEL-28 melanoma; 9.43 µM in the assay on OVCAR-4 ovarian; 11.4 µM in the assay on HL-60(TB) leukemia; 88.5 µM with OVCAR-3 ovarian. For the same compound, the results for the TGI in the assay with NCI-H460 lung, with COLO 205 colon and in the assay on KM12 colon were 49.5 µM, 4.84 µM and 89.8 µM, respectively.
In the case of `CC(=O)OCC1OC(c2nnc(C)o2)=CC(OC(C)=O)C1OC(C)=O` (stereo not given), the TGI in the assay with SK-MEL-5 melanoma, with SF-539 CNS, in the assay on SK-MEL-28 melanoma, in the assay with OVCAR-4 ovarian, in the assay on HL-60(TB) leukemia and with OVCAR-3 ovarian was > 100 µM in each case. The TGI in the assay on NCI-H460 lung, with COLO 205 colon and in the assay on KM12 colon was > 100 µM in each case.
